# “Also recorded” adds a separate entry of the source.
# Tested on: conscious dogs
# Test: one-hour infusion of atriopeptin 24 in conscious dogs, renal hemodynamics and function, before and after α1-adrenergic receptor blockade
# Format: in vivo, dog
# Conditions: prazosin 1 mg/kg 40 minutes prior to one-hour atriopeptin 24 infusion
# Experimental: In this example, I first infused conscious dogs for one hour with atriopeptin 24 and measured the effects on renal hemodynamics and function. At least one week later, I treated the same dogs with the α1 -adrenergic blocking agent, prazosin, 40 minutes prior to a one-hour atriopeptin 24 infusion.
# The experiments were conducted using the following techniques and devices: female mongrel dogs were instrumented using sterile surgical techniques under sodium pentobarbital anesthesia (25 mg/kg). To measure renal blood flow, a Doppler ultrasonic flow transducer (Parks Electronics) was placed around the left renal artery. […]
# Arterial pressure was recorded using the implanted catheter attached to a Statham P23Db strain gauge transducer. Renal blood flow was measured using an ultrasonic flowmeter (Model 806A, Parks Electronics) and the implanted Doppler flow transducer. Phasic arterial pressure and renal blood flow were recorded on magnetic tape (Bell and Howell 3700B) and played back on a direct writing oscillograph (Gould-Brush 2800S). […] Heart rate was calculated using a cardiotachometer (Beckman Model 80574) from the pressure pulse interval.
# To measure renal function, urine samples were taken from the dogs, urine volume was measured and the concentration of urine and plasma sodium (Na) and potassium (K) was assayed using a flame photometer (Instrumentation Laboratories, Model 343). […]
structure (smiles),measurement,value
COc1cc2nc(N3CCN(C(=O)c4ccco4)CC3)nc(N)c2cc1OC [prazosin],effect of α1-adrenergic blockade on renal vasodilation produced by atriopeptin 24,renal blood flow remained elevated for the duration of the atriopeptin 24 infusion; also recorded: caused a sustained renal vasodilation
